Patent US9498532B2, “Antibody drug conjugates” (Novartis AG, priority 2013, dated 2016)

System: CHGA119 primary gastric tumor xenograft
Test: Anti-tumor activity and host response in CHGA119 patient-derived xenograft
Details: CHGA119-tumor bearing mice, ADCs 10 mg/kg i.v. q2wk, BGJ398 10 mg/kg p.o. qd
Text: In these studies, CHGA119 tumor fragments in size of 2 mm×2 mm×2 mm were implanted subcutaneously (s.c.) into female nu/nu athymic mice. […] Tumors were calipered twice a week.

## CCN1CCN(c2ccc(Nc3cc(N(C)C(=O)Nc4c(Cl)c(OC)cc(OC)c4Cl)ncn3)cc2)CC1 [BGJ398, 3-(2,6-Dichloro-3,5-dimethoxy-phenyl)-1-{6-[4-(4-ethyl-piperazin-1-yl)-phenylamino]-pyrimidin-4-yl}-1-methyl-urea]
  Host response % body weight change (mean ± SEM): −3.7 ± 3%
  Host response Mean body weight change (g ± SEM): -0.8 ± 0.7 g
  Mean tumor volume change (mm^3 ± SEM): 386 ± 169 mm^3
  Survival (survivors/total): 8/8
After 5 weeks of treatment
  Tumor response T/C (%): 33%
